From article PMC7275090, “Mode of action of teixobactins in cellular membranes” (Nature Communications, 2020)
Bridge positions count the residues as written; N and C are the ends. Square brackets hold non-standard residues; d marks the D form. Ends that are not written are not given here. d(aIle) = CC[C@H](C)[C@@H](N)C(=O)O; dNMeF = CN[C@H](Cc1ccccc1)C(=O)O

Assays:
[1] = ssNMR 15N T1rho relaxation (dynamics of bound teixobactin), Lys-Lipid II; details: for Bulk 15N R1rho / Bulk 15N T1rho: 950 MHz, 60 kHz MAS
Method: (§1) Relaxation studies: ^1H-detected ^15N T1rho relaxation experiments were carried out at 950 and 700 MHz magnetic field, respectively, using 60 kHz MAS[51]. The ^15N transverse magnetization decay was probed with a ^15N spinlock field of 17.5 kHz. For the bulk, we measured the intensity of the most intense signal at ~8.80 ^1H ppm. T1rho trajectories were fit to single exponentials.
(§2) Lipid I or II-doped multi-laminar vesicle preparations: DOPC or DOPG lipids were mixed with Lipid I or II in 1:1 MeOH:CHCl3 at the final Lipid I or II molar ratio (0–4 mol%/mol). The mixtures were dried and the lipid films were hydrated by vortexing with 2 mL of a teixobactin solution in 40 mM phosphate, 25 mM NaCl, pH 7.0.
(§3) SSNMR samples: MLVs were collected by centrifugation (20,000×g) and loaded into ssNMR rotors. For 3.2 mm rotors, we used 800 nmol of antibiotic with unlabelled Lipid II or I, while we used 400 nmol with labelled Lipid II. For 1.3 mm rotors, samples contained 200 nmol of antibiotic for unlabelled Lipid II or I, while we used 100 nmol for labelled Lipid II. For all ssNMR samples, we used 4 mol%/mol Lipid II or I in the MLVs.

[2] = 31P and 2D 1H31P ssNMR of pyrophosphate binding interface; details: membranes
From the text: Structural studies: To probe intermolecular contacts between ^13C,^15N-labelled [R4L10]-teixobactin molecules bound to unlabelled (^12C,^14N) Lipid II, we ran 2D ^13C^13C PARIS experiments with magnetization transfer times of 50, 300, 600, and 1000 ms at 950 MHz and 15.5 kHz MAS. To probe interfacial contacts between ^13C,^15N-labelled [R4L10]-teixobactin and ^13C,^15N-labelled Lipid II, we ran 2D ^13C^13C PARIS experiments with magnetization transfer times of 25, 50, 600, and 1000 ms at 950 MHz and 18 kHz MAS. 1D ^31P CP experiments were acquired at 500 MHz with 12 kHz MAS. The 2D ^1H^31P experiment was acquired at 800 MHz magnetic field and 60 kHz MAS using 1.75 ms CP transfer from ^1H to ^31P.
as §3

[3] = Mobility-edited ssNMR: membrane topology of Lipid II-bound teixobactin; details: 2D 1H(1H)13C, 700 MHz, 300 K
Method: Topological studies: The mobility-edited 2D ^1H(^1H)^13C experiment[22] was performed at 700 MHz with 16.5 kHz MAS at 300 K temperature using a T2 relaxation filter of 2.5 ms. After dephasing of the rigid signals, magnetization from mobile lipid and water molecules was transferred to the rigid antibiotic with 5 ms ^1H–^1H mixing, and subsequently transferred to ^13C nuclei of [R4L10]-teixobactin with a short (200 μs) cross-polarization step.

[4] = 2D NH and DNP ssNMR of teixobactin-Lipid II complex in native cellular membranes; type: binding, Micrococcus flavus DSM 1790
Method: 1D, 2D, and 3D ^1H-detected experiments were performed at 60 kHz MAS frequency using magnetic fields of 16.4, 18.8, and 22.2 T (700, 800, and 950 MHz ^1H-frequency) at temperatures of 305 K. All ^1H-detected experiments were dipolar-based. PISSARRO low-power decoupling[47] was used during detection periods. 2D ^13C^13C spin diffusion experiments were performed with PARISxy[48] recoupling at 950 MHz and 15.5, 17, or 18 kHz MAS frequency at 270 K temperature using mixing times of 25–1000 ms. SPINAL64[49] was used in detection periods. The 2D scalar ^13C^13C TOBSY[50] experiment was acquired at 950 MHz with 8 kHz MAS at 295 K temperature with 6 ms ^13C–^13C magnetization transfer time. Chemical shift assignments were performed using standard ^1H-detected 3D CANH and CONH experiments[36],[51] in combination with 2D ^13C^13C PARISxy[48] experiments with different magnetization transfer times (see Supplementary Tables 1 and 2). DNP-enhanced 2D ^13C^13C spin diffusion (20 ms mixing time) ssNMR experiments[52] were carried out using a 263 GHz microwave frequency, 400 MHz ^1H frequency setup (Bruker Biospin) at 100 K temperature and 8.5 kHz MAS.
Native membrane vesicle preparations were obtained from Micrococcus flavus DSM 1790[13],[16]. The amount of antibiotic was ~7.5 and 30 nmol for the 1.3 and 3.2 mm rotors, respectively. […]

[5] = ssNMR 15N T1rho relaxation (dynamics of bound teixobactin), Lys-Lipid I; details: bound to Lys-Lipid I in DOPC (Lys-LI PC), 950 MHz, 60 kHz MAS
Method: as §1, §2, §3

[6] = bound to Lys-LII in DOPC liposomes, 950 MHz/60 kHz MAS
[7] = bound to Lys-Lipid II in DOPC (Lys-LII PC)
[8] = bound to Lys-Lipid II in DOPG (Lys-LII_PG)

Substance: D-Arg4-Leu10-teixobactin ([dNMeF]IS[dR][d(aIle)]IS[dT]ALI; ester 8-C; also: 13C,15N labels at Ile2, Ser3, Ile6, Ser7 and one Ala (residue not fully stated)) [[R4L10]-teixobactin, teixobactin analogue in which D-Gln4 and L-allo-enduracididine10 are replaced by D-Arg4 and L-Leu10]
- mobility of Lipid II-bound peptide with increasing anionic membrane charge ([1]; DOPG vs DOPC, ssNMR relaxation): stark increase in mobility
- 15N R1rho, Ala9 [1, 6]: 8.95 s⁻¹
- 15N R1rho, Ile2 [1, 6]: 8.49 s⁻¹
- 15N R1rho, Ile6 [1, 6]: 7.70 s⁻¹
- 15N R1rho, Leu10 [1, 6]: 10.67 s⁻¹
- 15N R1rho, Ser3 [1, 6]: 7.40 s⁻¹
- 15N R1rho, Ser7 [1, 6]: 6.84 s⁻¹
- 15N T1rho, Ala9 [1, 6]: 111.70 ms
- 15N T1rho, Ile2 [1, 6]: 117.80 ms
- 15N T1rho, Ile6 [1, 6]: 129.90 ms
- 15N T1rho, Leu10 [1, 6]: 93.72 ms
- 15N T1rho, Ser3 [1, 6]: 135.20 ms
- 15N T1rho, Ser7 [1, 6]: 146.10 ms
- Bulk 15N R1rho [1, 7]: 9.46 s⁻¹
- Bulk 15N T1rho [1, 7]: 105.70 ms
- Bulk 15N R1rho [1, 8]: 29.61 s⁻¹
- Bulk 15N T1rho [1, 8]: 33.77 ms
- coordination of Lipid II pyrophosphate [2]: directly coordinate the pyrophosphate
- membrane localization of Lipid II-bound peptide [3]: localizes at the water–membrane interface with the non-polar residues Ile2 and Ile6 partitioned in the bilayer
- oligomerization and complex structure in natural membranes ([4]; DNP-ssNMR 2D 13C13C, M. flavus membranes vs DOPC): conserved in natural membranes
- cellular 2D NH spectrum vs anionic membranes ([4]; M. flavus membranes, 7.5 nmol of drug): strongly resembled the one in anionic membranes
- Bulk 15N R1rho [5]: 21.70 s⁻¹
- Bulk 15N T1rho [5]: 46.09 ms
